In patent US5578574A, “Antithrombotic agents” (Eli Lilly and Company, priority 1995, dated 1996):
Square brackets hold non-standard residues; d marks the D form. Peptide text beside a SMILES is read from it. ξ: configuration not given here. dPip = O=C(O)[C@H]1CCCCN1; dThz = O=C(O)[C@H]1CSCN1; ξAze = O=C(O)C1CCN1

Key:
[1] = Index of Bioavailability (plasma thrombin time AUC, oral vs i.v.); format: in vivo; conditions: rats; dose-adjusted AUC of plasma TT time course, p.o. vs i.v. bolus
Description: Assays are done in duplicate and averaged.
Each sample population represents alternating sequential time points.

human thrombin = human thrombin (Homo sapiens, UniProt P00734); experiment: Human thrombin inhibition (amidase activity, chromogenic substrate; Kass); conditions: purified human thrombin, mean over a range of concentrations
Protocol: Standard curves are constructed by plotting free thrombin concentration against hydrolysis rate. […] The amount of free inhibitor in each assay is calculated by subtracting the number of moles of bound thrombin from the number of moles of added inhibitor (test compound).
Kass is calculated for a range of concentrations of test compounds and the mean value reported in units of liter per mole.

thrombin = conditions: Bajusz et al., J. Med. Chem., 33, 1729-1735 (1990); cited from earlier work
[2] = early clinical studies, Simoons et al.; cited from earlier work
[3] = Template Bleeding Time assay (gingival); format: in vivo, dog; conditions: 0.25, 0.50 and 1.0 mg/kg.hr; over a 240 minute time
Protocol: Whole blood cell counts, hemoglobin, and hematocrit values are determined on a 40-μl sample of citrated (3.8 percent) blood (1 part citrate:9 parts blood) with a hematology analyzer (Cell-Dyn 900, Sequoia-Turner. Mount View, Calif., U.S.A.). Gingival template bleeding times are determined with a Simplate II bleeding time device (Organon Teknika Durham, N.C., U.S.A.). The device is used to make 2 horizontal incisions in the gingiva of either the upper or lower left jaw of the dog. Each incision is 3 mm wide×2 mm deep. The incisions are made, and a stopwatch is used to determine how long bleeding occurs. A cotton swab is used to soak up the blood as it oozes from the incision. Template bleeding time is the time from incision to stoppage of bleeding. Bleeding times are taken just before administration of test compound (0 min), 60 min into infusion, at conclusion of administration of the test compound (120 min), and at the end of the experiment.
All data are analyzed by one-way analysis of variance (ANOVA) followed by Student-Neuman-Kuels post hoc t test to determine the level of significance. Repeated-measures ANOVA are used to determine significant differences between time points during the experiments. Values are determined to be statistically different at least at the level of p<0.05. All values are mean ±SEM. […]

[4] = Pharmacokinetic model in dogs, single oral dose; format: in vivo, dogs (Beagles); conditions: single 2 mg/kg oral dose
Protocol: Male dogs (Beagles; 18 months-2 years; 12-13 kg, Marshall Farms, North Rose, N.Y. 14516) are fasted overnight and fed Purina certified Prescription Diet (Purina Mills, St. Louis, Miss.) 240 minutes after dosing. Water is available ad libitum. The room temperature is maintained between 66°-74° F.; 45-50 percent relative humidity; and lighted from 0600-1800 hours.
Test compound is formulated immediately prior to dosing by dissolving in sterile 0.9 percent saline to a 5 mg/ml preparation. Dogs are given a single 2 mg/kg dose of test compound by oral garage. Blood samples (4.5 ml) are taken from the cephalic vein at 0.25, 0.5, 0.75, 1,2,3,4 and 6 hours after dosing. Samples are collected in citrated Vacutainer tubes and kept on ice prior to reduction to plasma by centrifugation. Plasma samples are derivatized with dinitrophenylhydrazine and analyzed by HPLC (Zorbax SB-C8 column) eluting with methanol/500 mM sodium acetate adjusted to pH7 with phosphoric acid (60:40, v/v). Plasma concentration of test compound is recorded and used to calculate the pharmacokinetic parameters: elimination rate constant, Ke; total clearance, Clt; volume of distribution, VD; time of maximum plasma test compound concentration, Tmax; maximum concentration of test compound of Tmax, Cmax; plasma half-life, t0.5; and area under the curve, A.U.C.; fraction of test compound absorbed, F.

Compound	Percent Relative Activity (Index of Bioavailability) [1] [%]	Kass × 10^6 (l/mole) (human thrombin)	also measured
Cl.Cl.N=C(N)NCCC[C@@H](C=O)NC(=O)[C@@H]1CCCN1C(=O)C1NCCCC2CCCCC21 (mixture of isomers) [Example 8, DL-cis-3-aza-bicyclo[5.4.0]undecanyl-2-carbonyl-L-prolinyl-L-arginine aldehyde dihydrochloride]	43	595 × 10^6 l/mole	
Cl.Cl.Cl.N=C(N)NCCC[C@@H](C=O)NC(=O)[C@@H]1CCCN1C(=O)[C@H]1C[C@@H](Oc2ccccc2)CN1.O (relative stereo) [Example 12, D-Cis-(4-phenoxy) Prolinyl-L-Prolinyl-L-Arginine Aldehyde Trihydrochloride Monohydrate]	16	25 × 10^6 l/mole	
CC(C)(C)OC(=O)N[C@H](Cc1ccccc1)C(=O)N1CCC[C@H]1C(=O)N[C@H](C=O)CCCNC(=N)N [Boc-D-Phe-Pro-Arg-H]			direct inhibition of thrombin (thrombin): potent direct inhibition of thrombin
CN[C@H](Cc1ccccc1)C(=O)N1CCC[C@H]1C(=O)N[C@H](C=O)CCCNC(=N)N.O=S(=O)(O)O [D-MePhe-Pro-Arg-H sulfate]			anticoagulant in man [2]: is an anticoagulant in man
CN[C@H](Cc1ccccc1)C(=O)N1CCC[C@H]1C(=O)N[C@H](C=O)CCCNC(=N)N [D-MePhe-Pro-Arg-H]			direct inhibition of thrombin (thrombin): potent direct inhibition of thrombin
N=C(N)NCCC[C@@H](C=O)NC(=O)[C@@H]1CCCN1C(=O)[C@H](N)Cc1ccccc1 [D-Phe-Pro-Arg-H]			direct inhibition of thrombin (thrombin): potent direct inhibition of thrombin
Cl.Cl.N=C(N)NCCC[C@@H](C=O)NC(=O)[C@@H]1CCCN1C(=O)[C@H]1CCCCN1 [Example 1, D-Homoprolinyl-L-Prolinyl-L-Arginine Aldehyde Dihydrochloride] (H-[dPip]-Pro-Arg-aldehyde)	38	46 × 10^6 l/mole	effect on template bleeding time [3]: no significant effect on template bleeding time; A.U.C. o-infinity [4]: 4651 ng·h/mL; Cmax [4]: 1676 ng/mL; Ke (elimination rate constant) [4]: 0.0104 min⁻¹; Tmax [4]: 1 to 2 h; VD/F (volume of distribution) [4]: 0.729 L/kg; t0.5 (plasma half-life) [4]: 1.12 h
Cl.Cl.N=C(N)NCCC[C@@H](C=O)NC(=O)C1CCN1C(=O)[C@H]1CCCCN1 (stereo partly drawn) [Example 3, D-Homoprolinyl-L-Azetidinyl-L-Arginine Aldehyde Dihydrochloride] (H-[dPip]-[ξAze]-Arg-aldehyde)	32	45 × 10^6 l/mole	
Cl.Cl.N=C(N)NCCC[C@@H](C=O)NC(=O)[C@@H]1CCCN1C(=O)[C@H]1CSCN1 [Example 4, D-Thiazolidinyl-4-Carbonyl-L-Prolinyl-L-Arginine Aldehyde Dihydrochloride] (H-[dThz]-Pro-Arg-aldehyde)	16	5 × 10^6 l/mole	
CC(C)C1N[C@@H](C(=O)N2CCC[C@H]2C(=O)N[C@H](C=O)CCCNC(=N)N)C(C)(C)S1.Cl.Cl (stereo partly drawn) [Example 5, D-2-Isopropyl-5,5-Dimethylthiazolidinyl-4-Carbonyl-L-Prolinyl-L-Arginine Aldehyde Dihydrochloride]		4 × 10^6 l/mole	
Cl.Cl.Cl.N=C(N)NCCC[C@@H](C=O)NC(=O)[C@@H]1CCCN1C(=O)[C@H]1C[C@H](Oc2ccc3ccccc3c2)CN1.O [Example 6, trans-4-(2-Naphthyloxy)-D-Prolinyl-L-Prolinyl-L-Arginine Aldehyde Trihydrochloride Monohydrate]		21 × 10^6 l/mole	
Cl.Cl.N=C(N)NCCC[C@@H](C=O)NC(=O)[C@@H]1CCCN1C(=O)C1CNCCN1 (stereo partly drawn) [Example 9, D,L-Piperazin-2-oyl-L-Prolinyl-L-Arginine Aldehyde Dihydrochloride]	19	121 × 10^6 l/mole	
Cl.Cl.N=C(N)NCCC[C@@H](C=O)NC(=O)[C@@H]1CCCN1C(=O)C1NCCS1 (stereo partly drawn) [Example 10, D,L-Thiazolidinyl-2-carbonyl-L-prolinyl-L-arginine aldehyde dihydrochloride]	5	27 × 10^6 l/mole	
Cl.Cl.Cl.N=C(N)NCCC[C@@H](C=O)NC(=O)[C@@H]1CCCN1C(=O)[C@H]1C[C@H](Sc2ccccc2)CN1.O.O.O [Example 14, trans-4-phenylthio-D-prolinyl-L-prolinyl-L-arginine aldehyde trihydrochloride trihydrate]		37 × 10^6 l/mole	
D-Prolinyl-L-Prolinyl-L-Arginine Aldehyde Dihydrochloride [Example 2]	36	12 × 10^6 l/mole	
